This passage reports Drug uptake and Cmax results from ChEMBL document CHEMBL5625185 (Eur J Med Chem, 2023).

Holding throughout (type): ADME, organism-based
Details in all cases: in vivo; call rule not given here

Data set [1] is described as follows: Drug distribution in wild type mouse testis at 50 mg/kg, po measured after 1 hr by UPLC-QTOFMS analysis.
The nature of data set [2]: Drug distribution in wild type mouse spleen at 50 mg/kg, po measured after 1 hr by UPLC-QTOFMS analysis.
Data set [3] in a line: Drug distribution in wild type mouse liver at 50 mg/kg, po measured after 1 hr by UPLC-QTOFMS analysis.
The nature of data set [4]: Drug distribution in wild type mouse brain at 50 mg/kg, po measured after 1 hr by UPLC-QTOFMS analysis.
The nature of data set [5]: Cmax in wild type mouse at 50 mg/kg, po measured upto 8 hrs by UPLC-QTOFMS analysis.
A short description of data set [6]: Drug distribution in wild type mouse lung at 50 mg/kg, po measured after 1 hr by UPLC-QTOFMS analysis.
Data set [7] is described as follows: Drug distribution in wild type mouse kidney at 50 mg/kg, po measured after 1 hr by UPLC-QTOFMS analysis.

Each structure is given as a SMILES string.

A word on the Cmax: it is the highest concentration seen after dosing. With `COc1ccc2c3c([nH]c2c1)[C@H](CC(C)C)N1C(=O)[C@H](CCC(=O)NC(C)C)NC(=O)[C@@H]1C3`, the Drug uptake entry in data set [1] was “Not Active”; in data set [2], “Active”; in data set [3], “Active”; in data set [4] it was “Not Active”; in data set [6] it was “Active”; in data set [7], “Active”. Moreover, in data set [5], the Cmax was determined as 8.74 µM.

As for `COc1ccc2c3c([nH]c2c1)[C@H](CC(C)C)N1C(=O)[C@H](CCC(=O)NC(C)(C)C)NC(=O)[C@@H]1C3`, the Drug uptake entry is “Not Active” in data set [1]; “Active” in data set [2]; “Active” in data set [3]; “Not Active” in data set [4]; “Active” in data set [6]; “Active” in data set [7].
